# Data published in patent US9889150B2, “Agents for the prevention and/or treatment of central nervous system damage” (The University Of Liverpool, priority 2012, dated 2018).
# “Also recorded” adds a separate entry of the source.
# Assays:
# [1] = tested on: OECs and astrocytes; test: OEC:astrocyte confrontation assay (boundary formation); type: cell-based, Sprague-Dawley rat; conditions: modified heparins 10 μg/ml, 2 days of treatment
# Protocol: (§1) All primary neural cultures were generated from Sprague-Dawley rat pups of either sex. As described previously^10,37, purified type 1 astrocytes were prepared by digesting cortices (dissected from 1-day old Sprague Dawley (SD) rats) in 1.33% (w/v) collagenase (Sigma-Aldrich, Gillingham, UK), seeding (˜2×10^7 cells per 75 cm^2 flask) and culturing the cells in poly-L-lysine (PLL, 13.3 μg/ml, Sigma-Aldrich, Gillingham, UK) coated 75 cm2 flasks for 10-12 days. The cells were maintained in DMEM (Invitrogen, Paisley, Scotland) supplemented with 10% (v/v) foetal bovine serum (FBS) (Sigma-Aldrich, Gillingham, UK) and L-glutamine (2 mM, Sigma-Aldrich, Gillingham, UK) (DMEM-FBS). Confluent flasks were shaken on a rotary platform overnight at 37° C. to remove contaminating oligodendrocyte precursor cells. The remaining cells were 85-95% type 1 astrocytes as identified by labelling for glial fibrillary acidic protein (GFAP), an astrocyte cell specific marker.
# OECs were isolated from the olfactory bulb of 7 day old SD rat pups and purified using magnetic nanoparticles (STEMCELL Technologies, UK) pre-bound with the p75^NTR antibody (mouse IgG1, Abcam, Cambridge, UK)^30. The cells were grown in low glucose DMEM with 5% (v/v) FBS and 2 mM L-glutamine and further supplemented with DMEM-BS (Bottenstein, 1979), FGF2 (25 ng/ml, Peprotech, London UK), heregulin β-1 (50 ng/ml, R&D Systems, Oxon, UK), forskolin (5×10^-7 M Sigma-Aldrich, Gillingham, UK) and astrocyte conditioned media (ACM) (1:5, fresh serum-free media taken after incubation with a confluent astrocyte monolayer for 48 h)^18, 37.
# Confrontation assays were performed as described by Wilby et al. (1999) and Lakatos et al. (2000) with some modifications^10,48. Briefly, 70 μl containing 10,000 OECs or SCs were seeded into one well of a silicon Ibidi culture insert on a PLL-coated glass coverslip (Ibidi GmbH, Munich, Germany). Into the opposing, parallel well, 10,000 astrocytes were seeded. Cells were allowed to attach for 1 h before careful removal of the insert followed by a wash with DMEM-FBS to remove unattached cells. Cultures were maintained in DMEM-FBS and allowed to grow towards each other over a period of 5-7 days, allowing time for cells to make contact and interact^10. In some experiments, modified heparins or blocking antibodies were added to the cultures after the cells had contacted each other. Cultures were then immunolabelled using anti-GFAP for astrocytes (1:500; anti-rabbit (Dako, Ely, UK)) and anti-p75NTR for OECs and SCs (1:1; IgG1; hybridoma supernatant^49. Fluorescent images were captured using an Olympus BX51 fluorescent microscope and Image-Pro software. Using Adobe Photoshop Elements 7.0, a 300 μm line was drawn along the interface between astrocytes and either OECs or SCs. The numbers of OECs or SCs crossing the cell:cell boundary were counted and averaged over five randomly chosen fields. Experiments were repeated at least three times.
# Modified heparins were produced semisynthetically by chemical modification (selective desulfation) of heparin as described in Example 1. These structurally distinct, model “HS-mimetic” polysaccharides^50 are useful tools for investigating structure-activity relationships of HS^15-17,31. Heparins were added to confrontation assays at 10 μg/ml at the stage when cells made contact (day 0) and treatment was repeated on day 2. Cultures were fixed and stained as described above on day 3. […]
# Purified OECs were seeded at a density of 5000 cells/100 μl into one chamber of an Ibidi culture insert (Ibidi GmbH, Munich, Germany) sealed onto a PLL coated coverslip in a well of a 24-well plate. Cells were cultured in defined OEC medium for 24 h, after which, the medium was replaced with low serum (2% (v/v) FBS) OEC medium containing 1 μM siRNA. siRNA sequences were obtained from Dharmacon/Thermo Scientific (Sulf 1: E-093746-00-0005; Sulf2: E-093673-00-0005; non-targeting: D-001910-01-05; Thermo Fisher Scientific Inc, IL, USA). […]
# [2] = tested on: T1, Factor Xa (Homo sapiens); test: Anti-factor Xa activity against PIMH standard, Coatest Heparin test kit; type: biochemical; conditions: compared with standard heparin (HEP1)
# T1 construct: purchased Chromogenix
# T1 sequence (P01008 33-464): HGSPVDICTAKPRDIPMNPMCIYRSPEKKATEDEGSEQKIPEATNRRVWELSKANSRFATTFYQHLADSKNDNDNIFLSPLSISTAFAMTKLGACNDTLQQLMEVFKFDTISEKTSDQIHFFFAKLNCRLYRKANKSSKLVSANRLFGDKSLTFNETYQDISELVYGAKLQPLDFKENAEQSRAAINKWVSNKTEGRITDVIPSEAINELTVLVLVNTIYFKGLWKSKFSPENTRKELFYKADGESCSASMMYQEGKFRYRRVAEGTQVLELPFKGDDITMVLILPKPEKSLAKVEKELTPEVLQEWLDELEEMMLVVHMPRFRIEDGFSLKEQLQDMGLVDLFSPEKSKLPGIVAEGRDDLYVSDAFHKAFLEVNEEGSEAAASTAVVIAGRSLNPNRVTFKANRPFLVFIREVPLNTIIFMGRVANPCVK
# Protocol: Anti Factor Xa activity can be measured against a PIMH standard of known activity (Sigma, UK) using a diagnostic grade Coatest Heparin test kit (Chromogenix, MA), adapted to a 96-well plate format, reading A405 (Polarstar plate reader (BMG LabTechnologies, U.K.))^17.
# The anti-factor Xa activity was measured against a PIMH standard of known activity using a diagnostic grade Coatest Heparin test kit (Chromogenix, MA), adapted to a 96-well plate format, reading A405.
# [3] = target: T2, Factor IIa (Homo sapiens, UniProt P00734+P01008); test: Factor IIa colorimetric substrate assay with antithrombin III; type: biochemical; conditions: tested up to 100 ug/ml
# T2 construct: Factor IIa (Sigma, 15 mU/ml final concentration); purchased Sigma (Factor IIa); American Diagnostica (antithrombin III)
# Protocol: (§2) Factor Xa and Factor II activity was measured using a colorimetric substrate assay as previously described^17. Briefly, in a 96 well ELISA plate, antithrombin III (American Diagnostica, 30 mIU/ml final concentration) was incubated with heparin or polysaccharide fractions in 0.9% NaCl at 37° C. for 2 minutes. Factor IIa (Sigma, 15 mU/ml final concentration) or Factor Xa (Thermo Scientific, 15 mU/ml final concentration) was added and the samples incubated for a further 1 minute at 37° C. Factor Xa Chromogenic substrate (Sigma, 240 uM final concentration) was added to the samples and incubated for 10 minutes at 37° C. The reaction was stopped with glacial acetic acid (Sigma, 25% final concentration). Colour change of the substrate was measured at 405 nm.
# (§3) For all assays, heparins and polysaccharides were tested up to 100 ug/ml.
# [4] = tested on: normal human plasma; test: APTT assay; type: biochemical; conditions: tested up to 100 ug/ml
# Protocol: (§4) APTT and PT assays were performed using a Axis Shield Thrombotrack 1 instrument using normal human plasma, Pathrombin SL reagent and Thromborel S (all from Axis Shield) reagents according to manufacturers instructions.
# as §3
# [5] = tested on: SCs and astrocytes; test: SC:astrocyte confrontation assay (boundary formation); type: cell-based, Sprague-Dawley rat; conditions: modified heparins 10 μg/ml, 2 days of treatment
# Protocol: as §1
# SCs were purified using a modification of the method described by Brockes and colleagues^20. This modification involved treating the cultures with cytosine arabinoside (AraC, 10^−5 M, Sigma-Aldrich, Gillingham, UK), followed by incubation with anti-Thy1.1 antibody (1:1 supernatant, Sigma-Aldrich, Gillingham, UK) and rabbit complement (1:6, Harlan Laboratories Ltd., UK) to reduce contamination by fibroblasts^10. […]
# Confrontation assays were performed as described by Wilby et al. (1999) and Lakatos et al. (2000) with some modifications^10,48. […] Cultures were then immunolabelled using anti-GFAP for astrocytes (1:500; anti-rabbit (Dako, Ely, UK)) and anti-p75NTR for OECs and SCs (1:1; IgG1; hybridoma supernatant^49. Fluorescent images were captured using an Olympus BX51 fluorescent microscope and Image-Pro software. Using Adobe Photoshop Elements 7.0, a 300 μm line was drawn along the interface between astrocytes and either OECs or SCs. The numbers of OECs or SCs crossing the cell:cell boundary were counted and averaged over five randomly chosen fields. Experiments were repeated at least three times. […]
# [6] = tested on: normal human plasma; test: PT assay; type: biochemical; conditions: tested up to 100 ug/ml
# Protocol: as §4, §3
# [7] = target: T1, Factor Xa (Homo sapiens); test: Factor Xa colorimetric substrate assay with antithrombin III; type: biochemical; conditions: tested up to 100 ug/ml
# Protocol: as §2, §3
Substance,Anticoagulant activity (anti-Xa activity) [2],IC50 Factor IIa [3],IC50 APTT [4],IC50 PT [6],IC50 Factor Xa [7],also measured
6-O-desulphated heparin [HEP4],0.5%,,,,,boundary formation between OECs and astrocytes ([1]; listed as Hep 4): lower boundary forming activity; boundary formation between OECs and astrocytes ([1]; listed as Hep4): induced boundaries between OECs and astrocytes
"6-O-desulphated, 2-O-desulphated heparin [HEP7]",0.03%,NI (No inhibition of coagulation up to 100 ug/ml of compound),NI (No inhibition of coagulation up to 100 ug/ml of compound),NI (No inhibition of coagulation up to 100 ug/ml of compound),NI (No inhibition of coagulation up to 100 ug/ml of compound),SCs mingling with astrocytes / boundary formation ([5]; listed as Hep 7): increased number of SCs mingling with astrocytes; also recorded: significantly increased cell mingling; boundary formation between OECs and astrocytes ([1]; listed as Hep 7): do not promote boundary formation; boundary formation between OECs and astrocytes ([1]; listed as Hep7): did not
"6-O-desulphated, 2-O-desulphated, N-acetylated heparin [HEP8]",0.03%,NI (No inhibition of coagulation up to 100 ug/ml of compound),NI (No inhibition of coagulation up to 100 ug/ml of compound),NI (No inhibition of coagulation up to 100 ug/ml of compound),NI (No inhibition of coagulation up to 100 ug/ml of compound),SCs mingling with astrocytes / boundary formation ([5]; listed as Hep 8): increased number of SCs mingling with astrocytes; also recorded: significantly increased cell mingling; boundary formation between OECs and astrocytes ([1]; listed as Hep 8): do not promote boundary formation; boundary formation between OECs and astrocytes ([1]; listed as Hep8): did not
"6-O-desulphated, N-acetylated heparin [HEP6]",0.03%,NI (No inhibition of coagulation up to 100 ug/ml of compound),NI (No inhibition of coagulation up to 100 ug/ml of compound),NI (No inhibition of coagulation up to 100 ug/ml of compound),NI (No inhibition of coagulation up to 100 ug/ml of compound),SCs mingling with astrocytes / boundary formation ([5]; listed as Hep 6): increased number of SCs mingling with astrocytes; also recorded: significantly increased cell mingling; boundary formation between OECs and astrocytes ([1]; listed as Hep 6): do not promote boundary formation; boundary formation between OECs and astrocytes ([1]; listed as Hep6): did not
Ido 2-de-O-sulphated heparin [HEP3],0.4%,,,,,boundary formation between OECs and astrocytes ([1]; listed as Hep 3): lower boundary forming activity; boundary formation between OECs and astrocytes ([1]; listed as Hep3): induced boundaries between OECs and astrocytes
"Ido 2-de-O-sulphated, N-acetylated heparin [HEP5]",0.03%,NI (No inhibition of coagulation up to 100 ug/ml of compound),NI (No inhibition of coagulation up to 100 ug/ml of compound),NI (No inhibition of coagulation up to 100 ug/ml of compound),NI (No inhibition of coagulation up to 100 ug/ml of compound),boundary formation between OECs and astrocytes [1]: did not
N-acetyl heparin [HEP2],0.03%,,,,,boundary formation between OECs and astrocytes ([1]; listed as Hep 2): induced significant boundary formation; boundary formation between OECs and astrocytes ([1]; listed as Hep2): induced boundaries between OECs and astrocytes
Per-sulphated heparin [HEP9],35.0%,,,,,boundary formation between OECs and astrocytes ([1]; listed as Hep 9): induced the strongest boundaries; boundary formation between OECs and astrocytes ([1]; listed as Hep9): induced boundaries between OECs and astrocytes
